Entries after “also recorded” stand apart in the source; their conditions may differ.
Key:
[1] = Polymorph stability under manufacturing processes; type: physicochemical; settings: drying, milling, micronization, wet granulation, spray-drying, compaction
Excerpt: Various dissolution/crystallization conditions have been applied to try to convert polymorph B into polymorph A. As mentioned above, only with sophisticated procedures polymorph B could be fully converted into polymorph A (Example 4). Polymorphic forms of a drug substance can undergo phase conversion when exposed to a range of manufacturing processes, such as drying, milling, micronization, wet granulation, spray-drying, and compaction. Exposure to environmental conditions such as humidity and temperature can also induce polymorph conversion. Therefore, polymorph A is unstable and thus not suited for pharmaceutical processes, while polymorph B was stable under all these conditions including drying, milling, micronization, wet granulation, spray-drying, and compaction.

[2] = tested on: noise induced hearing loss model (NIHL) in guinea pigs; test: Noise induced hearing loss (NIHL) guinea pig model, intratympanic application, PTS by BERA; type: in vivo; settings: single intratympanic 0.12 mg; for level of improvement of the PTS: across investigated frequencies (FIG. 13 / FIG. 14)
Procedure: The effect of an intratympanic administration of polymorph A of 6-FMC (0.12 mg) prepared freshly (less than 24 h before use) on the Permanent Threshold Shift has been investigated in guinea pigs (FIG. 13). The Permanent Threshold Shift (PTS) is defined as the difference between the post-traumatic hearing threshold measured on day 14 and the baseline hearing threshold measured on day −3.
Furthermore, the effect of an intratympanic administration of polymorph B of 6-FMC (0.12 mg) prepared at least 48 h before use, on the PTS in guinea pigs is presented in FIG. 14.
General procedures: All in vivo proof of principle studies were performed in the well-established guinea pig model of NIHL. […] Hearing function was assessed by brain evoked response audiometry (BERA).
Methods: Adult guinea pigs received an intratympanic (i.t.) injection of either 6-FMC formulated in a thermosensitive hydrogel or hydrogel alone. All procedures were performed under anesthesia. BERA was used to measure auditory brainstem responses (ABRs) on day −3 and day 14. The auditory stimuli were sinus tones (10 ms duration at 4, 8, 16 kHz) at 5 dB steps from 0-90 dB. These measurements were used to calculate the PTS. The acoustic trauma was performed on day 0 and consisted of a single continuous band (quarter-octave centered at 8 kHz) at 118 dB SPL for 30 min. Animals were treated 1 h after the end of the acoustic exposure. The round window was visualized under a surgical microscope via a small hole drilled in the bone of the bulla of the left ear. 10 μL of gel containing either 6-FMC or vehicle was injected using a Hamilton syringe and a motorized pump onto the round window membrane (RWM) before the hole was closed with dental cement.
Formulation preparation: a non-ionic tenside based solution is prepared in advance, by dissolving an appropriate amount of the non-ionic tenside in water or in PBS buffer and allowing for an overnight mixing under refrigerated conditions. Once the non-ionic tenside is completely dissolved, osmolality and pH are adjusted if desired. Next the solution is filtered through a 500 μm sieve to remove undissolved gel particles. This concludes compounding of the vehicle. API (Active Pharmaceutical Ingredient) containing formulation is prepared by addition of micronized 6-FMC (≤50 μm) at a concentration of 12 mg/mL. For experiments presented in FIG. 13, 6-FMC formulation was applied directly after being prepared. For experiments in FIG. 14, 6-FMC formulation was prepared at least 48 h prior to animal experiments.

[3] = Polymorph stability in poloxamer-based formulation (XRPD); type: physicochemical; settings: for conversion of polymorphic form A into polymorphic form B: XRPD
Procedure: In a series of experiments, the polymorph stability has been analyzed. Micronized (≤20 μm) polymorphs A and B were added to phosphate buffer containing a non-ionic tenside as vehicle formulation. […]
2 mL of poloxamer based formulation with 12 mg/ml 6-FMC were cooled to 4° C., vortexed and transferred into a 2 mL Eppendorf vial. The cooled vial was centrifuged for 2 min with a table-centrifuge, the supernatant polymer solution was removed with a pipette and discarded. The remaining 6-FMC was resuspended and vortexed with 1.5 mL of ice cold milli-Q water and centrifuged down as described before. The supernatant water was again removed with a pipette and the washing procedure is repeated 3 times (in total 4 washings). Note: Keep the solution cool to facilitate the centrifugation process. After the last washing, the remaining white 6-FMC is cooled with liquid nitrogen and freeze dried overnight at 100 Pa at room temperature.
After 30 hours in formulation 60% of polymorphic form A is converted into polymorphic form B (see FIG. 10). Keeping the formulation for 48 hours or longer results in 100% conversion of polymorphic form A into polymorphic form B as shown in FIG. 11.

[4] = Polymorph conversion using supercritical CO2; type: physicochemical; settings: 60° C., 350 bar (35 MPa), 2.5 h
Procedure: Extraction/polymorph conversion with supercritical CO2 was performed with 500 mg of crude, off-white polymorph B in an ExtrateX Rapid Expansion of a Supercritical Solution (REES) system. The extraction vessel was heated to 60° C. with a pressure of 350 bar. The nozzle was a stainless-steel capillary 5 cm length, inner diameter 0.25 mm at 70° C. The expansion vessel was heated to 40° C. at 1-5 Mpa. Equilibration time: 2.5 h; spraying-time: 15 min.
The cylinder of the apparatus in which the supercritical CO2 had been introduced was loaded with polymorph B (FIG. 9A) and heated to 60° C. and a pressure of 35 MPa. The time amounted to 2.5 hrs during which the API dissolved completely in the supercritical CO2.

[5] = Polymorph conversion under various thermal conditions (polymorph B to polymorph A), XRPD; type: physicochemical
Procedure: 3-1: Polymorph B of 6-FMC was dissolved in n-heptane, the suspension was heated (100° C.) for 1:45 h under stirring. Then the suspension was cooled and stirred at room temperature for 15 hrs. The precipitate was filtered, washed with n-heptane and dried by air.
3-2: Polymorph B of 6-FMC was diluted in toluene and heated up to 95° C. and cooled down to room temperature. The precipitate was filtered, washed with toluene and dried in an air stream.
3-3: A suspension of polymorph B of 6-FMC was diluted in n-heptane and heated up to 110° C. It was kept for 5 hrs 18 min in a flask under reflux conditions, followed by gentle cooling down to room temperature, stirred for 16 hrs. The precipitate was filtered, washed with heptane and dried by air.
3-4: A suspension of polymorph B of 6-FMC was diluted in n-heptane and heated up to 108° C. until the substance was completely diluted. Seed crystals of polymorph A were added to the solution which was gentle cooled down to room temperature. The precipitate was filtered, washed with n-heptane and dried by air.

[6] = Melting/cooling and vacuum sublimation of polymorph powders; type: physicochemical
Procedure: The polymorph B sample melted at ˜123° C. […] (FIG. 6B).

[7] = day 14 vs day -3, listed as polymorphic form A
[8] = day 14 vs day -3, listed as polymorphic form B

Row | SMILES | stability under manufacturing processes [1] | level of improvement of the PTS [2] | recovery of the PTS compared to vehicle treated animals ([2]; at 16 kHz) | average PTS (threshold shift) in treated animals [2, 7] | average PTS reduction versus vehicle-treated controls [2, 7] | conversion of polymorphic form A into polymorphic form B ([3]; 30 hours in poloxamer based formulation (phosphate buffer, non-ionic tenside), micronized) | conversion of polymorphic form A into polymorphic form B ([3]; 48 hours in poloxamer based formulation, listed as polymorphic A) | PTS at some frequencies ([2]; 4 and 8 kHz (FIG. 14)) | level of improvement of the PTS ([2]; listed as polymorphic form B) | average PTS (threshold shift) in treated animals [2, 8] | average PTS reduction versus vehicle-treated controls [2, 8] | polymorph conversion in supercritical CO2 [4] | conversion of polymorph B into form A (XRPD) ([5]; 3-1: n-heptane, 100° C. for 1:45 h, then room temperature 15 hrs) | conversion of polymorph B into form A (XRPD) ([5]; 3-2: toluene, heated to 95° C., cooled to room temperature, not reproducible) | conversion of polymorph B into form A (XRPD) ([5]; 3-3: n-heptane, 110° C., reflux 5 hrs 18 min, cooled, stirred 16 hrs) | conversion of polymorph B into form A (XRPD) ([5]; 3-4: n-heptane, 108° C., seed crystals of polymorph A added, cooled to room temperature) | polymorph conversion in formulation ([3]; initially introduced polymorph B, after 30 h in formulation) | polymorph conversion in formulation ([3]; sample initially made from polymorph B, regular intervals over several months) | polymorph conversion in the melt (diffractometry) ([6]; depending on duration of the melting status) | polymorph conversion on vacuum sublimation ([6]; vacuum sublimation at 1-2 kPa)
1 | Cn1c2ccc(F)cc2c2ccncc21 [polymorph A, 6-fluoro-9-methyl-9H-β-carboline] | unstable | 10-18 dBs | 10-18 dBs | 14.6 dB | 7.7 dB | 60% | 100% | – | – | – | – | – | – | – | – | – | – | – | – | –
2 | Cn1c2ccc(F)cc2c2ccncc21 [polymorph B, 6-fluoro-9-methyl-9H-β-carboline] | stable | – | – | – | – | – | – | 0 | 23-39 dBs | 0.6 dB | 34.1 dB | polymorph A is obtained; also recorded: transformation happened of polymorph B into polymorph A | did not reveal conversion into form A | some presence of polymorph A | unchanged polymorph B | unchanged polymorph B | no conversion | no polymorph conversion | up to a complete conversion | complete conversion into white crystals of polymorph A

From US12466824B2, “Stable polymorphic form of 6-fluoro-9-methyl-9H-β-carboline and uses thereof” (AudioCure Pharma GmbH, priority 2019, dated 2025)
